In PubChem BioAssay (NCI):
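All cell lines were grown in 96-well plates and treated with compound for 48 hours. At the TGI there is no net growth.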

Tests used:
Assay in all cases: inhibition of tumour cell growth, NCI panel, 48 h
RPMI-8226 leukemia = tested on: RPMI-8226 leukemia
RXF 393 renal = tested on: RXF 393 renal
SR leukemia = tested on: SR leukemia
SN12C renal = tested on: SN12C renal
MDA-MB-231 breast = tested on: MDA-MB-231 breast
COLO 205 colon = tested on: COLO 205 colon
HCC-2998 colon = tested on: HCC-2998 colon
NCI-H460 lung = tested on: NCI-H460 lung
MALME-3M melanoma = tested on: MALME-3M melanoma
SK-MEL-2 melanoma = tested on: SK-MEL-2 melanoma

Structure (SMILES) | TGI (RPMI-8226 leukemia) | TGI (RXF 393 renal) | TGI (SR leukemia) | TGI (SN12C renal) | TGI (MDA-MB-231 breast) | TGI (COLO 205 colon) | TGI (HCC-2998 colon) | TGI (NCI-H460 lung) | TGI (MALME-3M melanoma) | TGI (SK-MEL-2 melanoma)
O=P(O)(O)CN1CCNCCN(CP(=O)(O)O)CC1 | > 100 µM | > 100 µM | > 90.6 µM | > 100 µM | > 100 µM | 18.7 µM | > 100 µM | > 100 µM | > 100 µM | > 100 µM
O=C(Nc1ccc(Cl)cc1)c1cc(S(=O)(=O)Nc2n[nH]c(=O)n2-c2ccccc2)c(S)cc1Cl | > 100 µM | > 100 µM | > 100 µM | > 100 µM | > 100 µM | > 100 µM | > 100 µM | > 100 µM | > 100 µM | > 100 µM
CCOC(=O)C1=C(C)N(Cc2ccccc2)C2(O)C=CC(=O)C3=C(O)c4ccccc4C(=O)C312 (stereo not given) | 31.2 µM | 19.7 µM | 14.1 µM | 32.1 µM | 37.8 µM | 30.4 µM | 31.1 µM | 24.4 µM | 8.35 µM | 30.4 µM
O=S(=O)(O)c1cc(S(=O)(=O)O)c2c(N=Nc3ccc(N=Nc4ccccc4)cc3)c(O)ccc2c1 | > 100 µM | > 100 µM | > 100 µM | > 100 µM | > 100 µM | > 100 µM | > 100 µM | > 100 µM | > 100 µM | > 100 µM
O=C(N/N=C\c1ccc([N+](=O)[O-])s1)c1ccncc1 | > 41.3 µM | 56.6 µM | 12.2 µM | 26.8 µM | > 89.1 µM | 9.22 µM | 24 µM | 33.1 µM | 23.3 µM | 68.5 µM
O=S(=O)(O)c1ccc2c(N=Nc3ccc(Sc4ccc(N=Nc5c(O)ccc6cc(S(=O)(=O)O)ccc56)cc4)cc3)c(O)ccc2c1 | > 100 µM | > 100 µM | > 100 µM | > 100 µM | > 100 µM | > 100 µM | > 100 µM | > 100 µM | > 100 µM | > 100 µM
CC(=O)NC1C(OCc2ccccc2)OC(CO)C(O)C1OCC(=O)N[C@@H](C)C(=O)N[C@H](CCC(=O)NCCCNc1ccc([N+](=O)[O-])c2[nH]c3ccccc3c(=O)c12)C(N)=O (stereo not given in full) | > 100 µM | > 100 µM | > 100 µM | > 100 µM | > 100 µM | > 100 µM | > 100 µM | > 100 µM | > 100 µM | > 100 µM
O=C(NCCCCCN1CCC2(CCCCC2)CC1)C(C1CCCCC1)C1CCCCC1 | 4.71 µM | 8.92 µM | 4.17 µM | 9.67 µM | 10.8 µM | 2.84 µM | 2.57 µM | 6.46 µM | 3.26 µM | 4.82 µM
CC1(C)CC(=O)C2=C(C1)OC1(CC2c2ccc(Cl)cc2)CC(c2ccc(Cl)cc2)C2=C(CC(C)(C)CC2=O)O1 (stereo not given) | 28.5 µM | 94.3 µM | 87.2 µM | > 84.2 µM | 50.3 µM | 36.6 µM | 38.5 µM | > 65.1 µM | 30.1 µM | 43.8 µM
C=C1C(=O)OC2C3OC(C)(CCC(O)C3COC(C)=O)CC(OC(=O)/C(=C/C)COC(C)=O)C12 (stereo not given) | 0.339 µM | 0.515 µM | 0.713 µM | 1.98 µM | 1.16 µM | 0.246 µM | 2.59 µM | 2.22 µM | 0.0763 µM | 6.96 µM
O=c1[nH]nc(-c2ccccc2)n1-n1cnnc1 | > 100 µM | > 100 µM | > 100 µM | > 100 µM | > 100 µM | > 100 µM | > 100 µM | > 100 µM | > 100 µM | > 100 µM
CC(C)NC(=O)OCc1c(COC(=O)NC(C)C)c(-c2cc[n+](COC(=O)C3CCCCC3)cc2)n2c1CCC2 | > 100 µM | > 100 µM | > 100 µM | > 100 µM | > 100 µM | > 100 µM | > 100 µM | > 100 µM | > 100 µM | > 100 µM
Cc1ccc(/C=C2/N=C(N/N=C\c3ccccc3)NC2=O)cc1 | 48.3 µM | 66 µM | > 100 µM | > 100 µM | > 100 µM | > 100 µM | 72.1 µM | > 100 µM | > 100 µM | > 100 µM
Nc1cc2c3c(cccc3c1)C(=O)N(c1ccc(OCCN3CCCC3)cc1)C2=O | 56.3 µM | 32.2 µM | 50.9 µM | > 66.7 µM | 57.1 µM | 35.2 µM | 31.3 µM | 23.7 µM | 35.9 µM | 38 µM
CC[C@@]1(O)C(=O)OCc2c1cc1n(c2=O)Cc2c-1nc1ccccc1c2/C=N\NC(=O)C(N)Cc1c[nH]c2ccccc12 (stereo not given in full) | 17.3 µM | 1.21 µM | 1.19 µM | > 95.3 µM | > 100 µM | > 100 µM | > 65.7 µM | 6.42 µM | > 48.9 µM | 36.3 µM
CCOC(=O)c1cc(Br)c(-c2cc(C)co2)[nH]1 | > 100 µM | > 100 µM | > 100 µM | > 100 µM | > 100 µM | > 100 µM | > 100 µM | > 100 µM | > 100 µM | > 100 µM
